Values quoted from earlier work, collected in patent US20070020218A1, “Composition and method for the treatment of psoriasis” (priority 2005, published 2007).

Assays:
degenerative arthritis = details: 2,250 mg daily for six weeks
[1] = system: osteoarthritis of the knee; details: after 4 weeks, 252 people
knee osteoarthritis = details: for persistence of benefits after treatment was stopped: followed for an additional 60 days after the 90 days of treatment; for reduction of symptoms: over 90 days of treatment
[2] = oral
[3] = system: osteoarthritis of the knee; details: 85 people with osteoarthritis of the knee
arthritis of the knee = details: 12 months, 104 individuals

Question: Which “reduction in pain on average” value (degenerative arthritis) does the source give for CS(C)(=O)=O [MSM, Methylsulfonyl methane] here?
Answer: Its value is 82%.

Question: With N[C@H]1C(O)O[C@H](CO)[C@@H](O)[C@@H]1O.O=S(=O)(O)O (stereo partly drawn) [glucosamine sulfate] as the compound, how does the “pain and movement against placebo” value [1] read?
Answer: The value was “significantly reduced pain and improved movement”.

Question: And the “persistence of benefits after treatment was stopped” value (knee osteoarthritis)?
Answer: Its value is “lasted for the full 60 days”.

Question: What about the reduction of symptoms (knee osteoarthritis) of the same compound?
Answer: The reduction of symptoms was “equally effective”.

Question: With CN1C(C(=O)Nc2ccccn2)=C(O)c2ccccc2S1(=O)=O [piroxicam, reference compound] as the compound, how does the “persistence of benefits after treatment was stopped” value (knee osteoarthritis) read?
Answer: The value was “rapidly disappeared”.

Question: And the reduction of symptoms (knee osteoarthritis)?
Answer: The reduction of symptoms was “equally effective”.

Question: For chondroitin sulfate, which chondroitin absorbed intact [2] is on record?
Answer: The chondroitin absorbed intact was “up to 15%”.

Question: What about the “participants with improved results” value [3] of the same compound?
Answer: The value was 69%.

Question: What about the “trial outcome against placebo” value (arthritis of the knee) of the same compound?
Answer: Its value is “Good results”.
